Assay results from patent publication US8951964B2, “Phenanthridine macrocyclic hepatitis C serine protease inhibitors” (priority 2010, dated 2015).
Where two headings read alike, the source gives them in different places.

Key:
Type in all cases: cell-based, HCV
[1] = system: genotype 1a replicon (1a-H77); experiment: 1a stable replicon (luciferase reporter); conditions: HuH-7 cells, 5% FBS
[2] = system: genotype 1b replicon (1b-Con1, 1b-N); experiment: 1b stable replicon (luciferase reporter); conditions: HuH-7 cells, 5% FBS
[3] = system: genotype 1a transient replicon (1a-H77); experiment: 1a transient replicon (luciferase reporter); conditions: HuH-7 cells, 5% FBS
[4] = system: genotype 1b transient replicon; experiment: 1b transient replicon (luciferase reporter); conditions: HuH-7 cells, 5% FBS
[5] = system: genotype 3a NS3 gene in transient replicon; experiment: 3a transient replicon (luciferase reporter)
[6] = Hepatitis C virus, Huh-7, luciferase reporter
[7] = Hepatitis C virus, Huh-7, read-out: 3a transient replicon (nM)

## Cc1cc(C(=O)N[C@H]2CCCCC/C=C\[C@@H]3C[C@@]3(C(=O)NS(=O)(=O)C3(C)CC3)NC(=O)[C@@H]3C[C@@H](Oc4nc5cc(F)ccc5c5cc(F)ccc45)CN3C2=O)no1
[1]; [6]
  EC50: 0.1 to 0.5 nM
[2]; Hepatitis C virus
  EC50: 0.1 to 0.5 nM
[3]; Hepatitis C virus
  EC50: < 0.1 nM
[4]; Hepatitis C virus
  EC50: 0.1 to 0.5 nM
[5]; [7]
  EC50: > 1 nM

## Cc1cc(C(=O)N[C@H]2CCCCC/C=C\[C@@H]3C[C@@]3(C(=O)NS(=O)(=O)C3CC3)NC(=O)[C@@H]3C[C@@H](Oc4nc5ccccc5c5cc(F)ccc45)CN3C2=O)no1
[1]; [6]
  EC50: 0.1 to 0.5 nM
[2]; Hepatitis C virus
  EC50: 0.1 to 0.5 nM
[3]; Hepatitis C virus
  EC50: < 0.1 nM
[4]; Hepatitis C virus
  EC50: 0.1 to 0.5 nM
[5]; [7]
  EC50: > 1 nM

## Cc1ccc(C(=O)N[C@H]2CCCCC/C=C\[C@@H]3C[C@@]3(C(=O)NS(=O)(=O)C3(C)CC3)NC(=O)[C@@H]3C[C@@H](Oc4nc5cc(F)ccc5c5ccccc45)CN3C2=O)o1
[1]; [6]
  EC50: 0.5 to 1 nM
[2]; Hepatitis C virus
  EC50: 0.1 to 0.5 nM
[3]; Hepatitis C virus
  EC50: 0.1 to 0.5 nM
[4]; Hepatitis C virus
  EC50: 0.1 to 0.5 nM
[5]; [7]
  EC50: < 1 nM

## COc1ccc2c(c1)nc(O[C@@H]1C[C@H]3C(=O)N[C@]4(C(=O)NS(=O)(=O)C5(C)CC5)C[C@H]4/C=C\CCCCC[C@H](NC(=O)c4cc(C)on4)C(=O)N3C1)c1ccccc12
[1]; [6]
  EC50: 0.1 to 0.5 nM
[2]; Hepatitis C virus
  EC50: 0.1 to 0.5 nM
[3]; Hepatitis C virus
  EC50: < 0.1 nM
[4]; Hepatitis C virus
  EC50: 0.1 to 0.5 nM
[5]; [7]
  EC50: > 1 nM

## Cc1ccc(C(=O)N[C@H]2CCCCC/C=C\[C@@H]3C[C@@]3(C(=O)NS(=O)(=O)C3(C)CC3)NC(=O)[C@@H]3C[C@@H](Oc4nc5cc(F)ccc5c5ccccc45)CN3C2=O)s1
[1]; [6]
  EC50: 0.5 to 1 nM
[2]; Hepatitis C virus
  EC50: 0.1 to 0.5 nM
[3]; Hepatitis C virus
  EC50: 0.1 to 0.5 nM
[4]; Hepatitis C virus
  EC50: 0.1 to 0.5 nM
[5]; [7]
  EC50: < 1 nM

## CC1(S(=O)(=O)NC(=O)[C@@]23C[C@H]2/C=C\CCCCC[C@H](NC(=O)c2ccc(F)s2)C(=O)N2C[C@H](Oc4nc5cc(F)ccc5c5ccccc45)C[C@H]2C(=O)N3)CC1
[1]; [6]
  EC50: 0.5 to 1 nM
[2]; Hepatitis C virus
  EC50: 0.1 to 0.5 nM
[3]; Hepatitis C virus
  EC50: < 0.1 nM
[4]; Hepatitis C virus
  EC50: 0.1 to 0.5 nM
[5]; [7]
  EC50: > 1 nM

## CC1(S(=O)(=O)NC(=O)[C@@]23C[C@H]2/C=C\CCCCC[C@H](NC(=O)c2ccon2)C(=O)N2C[C@H](Oc4nc5cc(F)ccc5c5cc(F)ccc45)C[C@H]2C(=O)N3)CC1
[1]; [6]
  EC50: 0.1 to 0.5 nM
[2]; Hepatitis C virus
  EC50: 0.1 to 0.5 nM
[3]; Hepatitis C virus
  EC50: < 0.1 nM
[4]; Hepatitis C virus
  EC50: < 0.1 nM
[5]; [7]
  EC50: > 1 nM

## O=C(N[C@H]1CCCCC/C=C\[C@@H]2C[C@@]2(C(=O)NS(=O)(=O)C2CC2)NC(=O)[C@@H]2C[C@@H](Oc3nc4ccccc4c4cc(F)ccc34)CN2C1=O)c1cncs1
[1]; [6]
  EC50: 0.5 to 1 nM
[2]; Hepatitis C virus
  EC50: 0.1 to 0.5 nM
[3]; Hepatitis C virus
  EC50: 0.1 to 0.5 nM
[4]; Hepatitis C virus
  EC50: 0.1 to 0.5 nM
[5]; [7]
  EC50: > 1 nM

## COc1ccc2c(c1)nc(O[C@@H]1C[C@H]3C(=O)N[C@]4(C(=O)NS(=O)(=O)C5CC5)C[C@H]4/C=C\CCCCC[C@H](NC(=O)c4ccn(C)n4)C(=O)N3C1)c1ccc(F)cc12
[1]; [6]
  EC50: 0.1 to 0.5 nM
[2]; Hepatitis C virus
  EC50: 0.1 to 0.5 nM
[3]; Hepatitis C virus
  EC50: 0.1 to 0.5 nM
[4]; Hepatitis C virus
  EC50: 0.5 to 1 nM
[5]; [7]
  EC50: 0.5 to 1 nM

## Cn1ccc(C(=O)N[C@H]2CCCCC/C=C\[C@@H]3C[C@@]3(C(=O)NS(=O)(=O)C3(C)CC3)NC(=O)[C@@H]3C[C@@H](Oc4nc5cc(OC(F)(F)F)ccc5c5ccccc45)CN3C2=O)n1
[1]; [6]
  EC50: 0.1 to 0.5 nM
[2]; Hepatitis C virus
  EC50: < 0.1 nM
[3]; Hepatitis C virus
  EC50: < 0.1 nM
[4]; Hepatitis C virus
  EC50: 0.1 to 0.5 nM
[5]; [7]
  EC50: 0.1 to 0.5 nM

## Cn1ccc(C(=O)N[C@H]2CCCCC/C=C\[C@@H]3C[C@@]3(C(=O)NS(=O)(=O)C3CC3)NC(=O)[C@@H]3C[C@@H](Oc4nc5cc(F)ccc5c5cc(OC(F)(F)F)ccc45)CN3C2=O)n1
[1]; [6]
  EC50: 0.5 to 1 nM
[2]; Hepatitis C virus
  EC50: < 0.1 nM
[3]; Hepatitis C virus
  EC50: 0.1 to 0.5 nM
[4]; Hepatitis C virus
  EC50: 0.1 to 0.5 nM
[5]; [7]
  EC50: > 1 nM

## O=C(N[C@H]1CCCCC/C=C\[C@@H]2C[C@@]2(C(=O)NS(=O)(=O)C2CC2)NC(=O)[C@@H]2C[C@@H](Oc3nc4cc(F)ccc4c4cc(F)ccc34)CN2C1=O)c1cscn1 [drawing 124]
[1]; [6]
  EC50: 0.5 to 1 nM
[2]; Hepatitis C virus
  EC50: 0.1 to 0.5 nM
[3]; Hepatitis C virus
  EC50: 0.1 to 0.5 nM
[4]; Hepatitis C virus
  EC50: 0.1 to 0.5 nM
[5]; [7]
  EC50: > 1 nM

## O=C(N[C@H]1CCCCC/C=C\[C@@H]2C[C@@]2(C(=O)NS(=O)(=O)C2CC2)NC(=O)[C@@H]2C[C@@H](Oc3nc4cc(F)ccc4c4cc(F)ccc34)CN2C1=O)c1cscn1 [drawing 125]
[1]; luciferase reporter
  EC50: > 1 nM
[2]
  EC50: 0.1 to 0.5 nM
[3]
  EC50: 0.1 to 0.5 nM
[4]
  EC50: 0.1 to 0.5 nM
[5]; read-out: 3a transient replicon, luciferase reporter, HuH-7 cells, 5% FBS
  EC50: > 1 nM
